US9738634B2, “Heterocyclic amide compound and herbicide” (SYNGENTA PARTICIPATIONS AG, priority 2013, dated 2017)

Columns and labels:
Assay type in all cases: in vivo
[1] = test system: barnyard grass; experiment: Test Example 1: weedkilling efficacy, preemergent weed treatment in the submerged state; A: barnyard grass
From the text: (§1) Weedkilling efficacy test on preemergent weed treatment in the submerged state
(§2) Alluvial soil was introduced into 1/10,000 Are Wagner pots, and 4 cm depth submerged conditions were created by addition of water and mixing. Seeds of barnyard grass, bulrush and oval-leafed pondweed were mixed and sown into the aforesaid cups, then 2.5 leaf stage rice seedlings were transplanted. On the sowing day, emulsions of compounds of the present invention prepared according to compounding example 2 were diluted with water to give the specified dosages and applied onto the water surface. The plants were grown after placing the cups in a greenhouse at 25 to 30° C. 3 weeks after the pesticide treatment the effect on each type of plant was investigated on the basis of the following assessment criteria.
(§3) A: barnyard grass, B: bulrush, C: oval-leafed pondweed, D: crabgrass, E: green foxtail, F: barnyard grass, G: wild oat, H: black-grass, I: Italian ryegrass, J: common wind-grass, K: Indian mallow, L: redroot pigweed, M: fig-leafed goosefoot, N: chickweed, O: catchweed, p: birds-eye speedwell, a: transplanted rice, b: directly sown rice, c: corn, d: soybean, e: wheat, f: beet, g: rapeseed
(§4) Further, pesticide dosage (g/ha) indicates the concentration regulated such that treatment was with only the stated number of grams (g), when calculated per hectare (ha).

[2] = test system: bulrush; experiment: Test Example 1: weedkilling efficacy, preemergent weed treatment in the submerged state; B: bulrush
From the text: as §1, §2, §3, §4

[3] = test system: oval-leafed pondweed; experiment: Test Example 1: weedkilling efficacy, preemergent weed treatment in the submerged state; C: oval-leafed pondweed
From the text: as §1, §2, §3, §4

[4] = test system: transplanted rice; experiment: Test Example 1: preemergent weed treatment in the submerged state, effect on crop; a: transplanted rice
From the text: as §1, §2, §3, §4

[5] = test system: barnyard grass; experiment: Test Example 2: weedkilling efficacy, growth period weed treatment in the submerged state; A: barnyard grass
Protocol: (§5) Weedkilling efficacy test on growth period weed treatment in the submerged state
as §2, with “and the plants were grown by placing in a greenhouse at 25 to 30° C. When the barnyard grass, bulrush and oval-leafed pondweed had reached the 1-2” for “then 2.5”, “stage,” for “stage rice seedlings were transplanted. On the sowing day,”, “surface.” for “surface. The plants were grown after placing the cups in a greenhouse at 25 to 30° C.”, “the” for “the following”, “criteria of test example 1.” for “criteria.”
as §3, §4

[6] = test system: bulrush; experiment: Test Example 2: weedkilling efficacy, growth period weed treatment in the submerged state; B: bulrush
Protocol: as §5
as §2, with “and the plants were grown by placing in a greenhouse at 25 to 30° C. When the barnyard grass, bulrush and oval-leafed pondweed had reached the 1-2” for “then 2.5”, “stage,” for “stage rice seedlings were transplanted. On the sowing day,”, “surface.” for “surface. The plants were grown after placing the cups in a greenhouse at 25 to 30° C.”, “the” for “the following”, “criteria of test example 1.” for “criteria.”
as §3, §4

[7] = test system: oval-leafed pondweed; experiment: Test Example 2: weedkilling efficacy, growth period weed treatment in the submerged state; C: oval-leafed pondweed
Protocol: as §5
as §2, with “and the plants were grown by placing in a greenhouse at 25 to 30° C. When the barnyard grass, bulrush and oval-leafed pondweed had reached the 1-2” for “then 2.5”, “stage,” for “stage rice seedlings were transplanted. On the sowing day,”, “surface.” for “surface. The plants were grown after placing the cups in a greenhouse at 25 to 30° C.”, “the” for “the following”, “criteria of test example 1.” for “criteria.”
as §3, §4

Compound	A: barnyard grass, weed kill grade ([1]; treatment dosage 320 g/ha)	B: bulrush, weed kill grade ([2]; treatment dosage 320 g/ha)	C: oval-leafed pondweed, weed kill grade ([3]; treatment dosage 320 g/ha)	a: transplanted rice, effect on crop grade ([4]; treatment dosage 320 g/ha)	A (barnyard grass) weedkilling efficacy grade ([5]; treatment dosage 320 g/ha)	B (bulrush) weedkilling efficacy grade ([6]; treatment dosage 320 g/ha)	A: barnyard grass, weed kill grade ([1]; treatment dosage 252 g/ha)	B: bulrush, weed kill grade ([2]; treatment dosage 252 g/ha)	C: oval-leafed pondweed, weed kill grade ([3]; treatment dosage 252 g/ha)	a: transplanted rice, effect on crop grade ([4]; treatment dosage 252 g/ha)	A (barnyard grass) weedkilling efficacy grade ([5]; treatment dosage 252 g/ha)	B (bulrush) weedkilling efficacy grade ([6]; treatment dosage 252 g/ha)	C (oval-leafed pondweed) weedkilling efficacy grade ([7]; treatment dosage 252 g/ha)	further results
CC(C)(C(=O)Nc1cc(OC(F)F)ccn1)N1COCN(c2ccccc2)C1=O [A-2-53]	5 (weed kill ratio 90% or more, (practically complete withering))	5 (weed kill ratio 90% or more, (practically complete withering))	5 (weed kill ratio 90% or more, (practically complete withering))	1 (weed kill ratio 5% or more, less than 20%)	5 (weed kill ratio 90% or more, (practically complete withering))	5 (weed kill ratio 90% or more, (practically complete withering))	–	–	–	–	–	–	–	C (oval-leafed pondweed) weedkilling efficacy grade ([7]; treatment dosage 320 g/ha): 5 (weed kill ratio 90% or more, (practically complete withering))
CC(C)(C(=O)Nc1cncc(Br)c1)N1COCN(c2ccccc2)C1=O [A-3-03]	–	–	–	–	–	–	5 (weed kill ratio 90% or more, (practically complete withering))	5 (weed kill ratio 90% or more, (practically complete withering))	5 (weed kill ratio 90% or more, (practically complete withering))	0 (weed kill ratio 5% or less (practically no effect))	3 (weed kill ratio 40% or more, less than 70%)	5 (weed kill ratio 90% or more, (practically complete withering))	4 (weed kill ratio 70% or more, less than 90%)	–
CC(C)(C(=O)Nc1cc(-c2ccccc2)ccn1)N1COCN(c2ccccc2)C1=O [A-2-49]	–	–	–	–	–	–	5 (weed kill ratio 90% or more, (practically complete withering))	5 (weed kill ratio 90% or more, (practically complete withering))	5 (weed kill ratio 90% or more, (practically complete withering))	1 (weed kill ratio 5% or more, less than 20%)	4 (weed kill ratio 70% or more, less than 90%)	4 (weed kill ratio 70% or more, less than 90%)	4 (weed kill ratio 70% or more, less than 90%)	–
CC1=C(c2ccccc2)C(=O)N(C(C)(C)C(=O)Nc2nnc(-c3ccccc3)s2)CO1 [B-1-11]	–	–	–	–	–	–	–	–	–	–	1 (weed kill ratio 5% or more, less than 20%)	4 (weed kill ratio 70% or more, less than 90%)	3 (weed kill ratio 40% or more, less than 70%)	A (barnyard grass) weedkilling efficacy grade ([1]; treatment dosage 252 g/ha): 4 (weed kill ratio 70% or more, less than 90%); B (bulrush) weedkilling efficacy grade ([2]; treatment dosage 252 g/ha): 5 (weed kill ratio 90% or more, (practically complete withering)); C (oval-leafed pondweed) weedkilling efficacy grade ([3]; treatment dosage 252 g/ha): 5 (weed kill ratio 90% or more, (practically complete withering)); a (transplanted rice) effect on crop grade ([4]; treatment dosage 252 g/ha): 0 (weed kill ratio 5% or less (practically no effect))
CC(C)(C(=O)Nc1cc(F)nc(F)c1)N1COCN(c2ccccc2)C1=O [A-4-04]	5 (weed kill ratio 90% or more, (practically complete withering))	5 (weed kill ratio 90% or more, (practically complete withering))	5 (weed kill ratio 90% or more, (practically complete withering))	0 (weed kill ratio 5% or less (practically no effect))	3 (weed kill ratio 40% or more, less than 70%)	5 (weed kill ratio 90% or more, (practically complete withering))	–	–	–	–	–	–	–	C (oval-leafed pondweed) weedkilling efficacy grade ([7]; treatment dosage 320 g/ha): 4 (weed kill ratio 70% or more, less than 90%)
COc1cccc(NC(=O)C(C)(C)N2COCN(c3ccccc3)C2=O)n1 [A-2-52]	–	–	–	–	–	–	5 (weed kill ratio 90% or more, (practically complete withering))	5 (weed kill ratio 90% or more, (practically complete withering))	5 (weed kill ratio 90% or more, (practically complete withering))	1 (weed kill ratio 5% or more, less than 20%)	4 (weed kill ratio 70% or more, less than 90%)	5 (weed kill ratio 90% or more, (practically complete withering))	2 (weed kill ratio 20% or more, less than 40%)	–
CC(C)(C(=O)Nc1cccc(C(F)F)n1)N1COCN(c2ccccc2)C1=O [A-2-41]	–	–	–	–	–	–	–	–	–	–	–	–	–	A: barnyard grass, weed kill grade ([1]; treatment dosage 315 g/ha): 5 (weed kill ratio 90% or more, (practically complete withering)); B: bulrush, weed kill grade ([2]; treatment dosage 315 g/ha): 5 (weed kill ratio 90% or more, (practically complete withering)); C: oval-leafed pondweed, weed kill grade ([3]; treatment dosage 315 g/ha): 5 (weed kill ratio 90% or more, (practically complete withering)); a: transplanted rice, effect on crop grade ([4]; treatment dosage 315 g/ha): 0 (weed kill ratio 5% or less (practically no effect)); A (barnyard grass) weedkilling efficacy grade ([5]; treatment dosage 315 g/ha): 5 (weed kill ratio 90% or more, (practically complete withering)); B (bulrush) weedkilling efficacy grade ([6]; treatment dosage 315 g/ha): 5 (weed kill ratio 90% or more, (practically complete withering)); C (oval-leafed pondweed) weedkilling efficacy grade ([7]; treatment dosage 315 g/ha): 5 (weed kill ratio 90% or more, (practically complete withering))
CC(C)(C(=O)Nc1cc(Cl)cc(Cl)n1)N1COCN(c2ccccc2Cl)C1=O [A-6-06]	–	–	–	–	–	–	5 (weed kill ratio 90% or more, (practically complete withering))	5 (weed kill ratio 90% or more, (practically complete withering))	5 (weed kill ratio 90% or more, (practically complete withering))	2 (weed kill ratio 20% or more, less than 40%)	5 (weed kill ratio 90% or more, (practically complete withering))	5 (weed kill ratio 90% or more, (practically complete withering))	5 (weed kill ratio 90% or more, (practically complete withering))	–
CC(C)(C(=O)Nc1nnc(C(F)(F)F)s1)N1COCN(c2ccccc2)C1=O [A-1-14]	4 (weed kill ratio 70% or more, less than 90%)	5 (weed kill ratio 90% or more, (practically complete withering))	3 (weed kill ratio 40% or more, less than 70%)	1 (weed kill ratio 5% or more, less than 20%)	2 (weed kill ratio 20% or more, less than 40%)	5 (weed kill ratio 90% or more, (practically complete withering))	–	–	–	–	–	–	–	C (oval-leafed pondweed) weedkilling efficacy grade ([7]; treatment dosage 320 g/ha): 2 (weed kill ratio 20% or more, less than 40%)
CC(C)(C(=O)Nc1cc(Br)cnc1Cl)N1COCN(c2ccccc2)C1=O [A-3-07]	–	–	–	–	–	–	5 (weed kill ratio 90% or more, (practically complete withering))	5 (weed kill ratio 90% or more, (practically complete withering))	4 (weed kill ratio 70% or more, less than 90%)	0 (weed kill ratio 5% or less (practically no effect))	4 (weed kill ratio 70% or more, less than 90%)	5 (weed kill ratio 90% or more, (practically complete withering))	1 (weed kill ratio 5% or more, less than 20%)	–
Cc1ccc(N2COCN(C(C)(C)C(=O)Nc3cc(C(F)(F)F)ccn3)C2=O)cc1 [A-6-09]	4 (weed kill ratio 70% or more, less than 90%)	5 (weed kill ratio 90% or more, (practically complete withering))	4 (weed kill ratio 70% or more, less than 90%)	0 (weed kill ratio 5% or less (practically no effect))	3 (weed kill ratio 40% or more, less than 70%)	3 (weed kill ratio 40% or more, less than 70%)	–	–	–	–	–	–	–	–
